The text below walks through data of DBAASP.

≈ marks a conversion by molar mass, not a printed value. Where “and” joins values, the source holds several entries; their conditions need not be identical. Identical values can stand only once.

The MIC is the lowest concentration that inhibits growth of the organism. Low readings indicate a more susceptible organism, high ones a less susceptible organism.

Some test systems named below: Enterococcus faecalis; Klebsiella pneumoniae; Streptococcus pneumoniae; Bacillus subtilis; Enterococcus faecium; Staphylococcus warneri.
What all share (test): ≥ marks a high value that may be exact or a test limit, other limits are often not marked, values filed in µg/mL are converted to µM
For assay [1], the system named is Pseudomonas aeruginosa PAO1.
Assay [2] concerns Staphylococcus epidermidis BCM0060.
Assay [3] concerns Staphylococcus aureus ATCC 43300.
Assay [4] concerns Escherichia coli ATCC 25922.
Assay [5] concerns Staphylococcus aureus ATCC 29213.
Assay [6] concerns Staphylococcus haemolyticus.
Assay [7] relates to Klebsiella pneumoniae ATCC 13883.
Assay [8] deals with Acinetobacter baumannii ATCC 19606.
Assay [9] has as its system Pseudomonas aeruginosa ATCC 27853.
The test system of assay [10] is Staphylococcus lugdunensis.
The test system of assay [11] is Candida parapsilosis CCARM 14016.
Assay [12] concerns Candida krusei CCARM 14017.
For assay [13], the system named is Fusarium verticillioides KCTC 6149.
For assay [14], the system named is Colletotrichum gloeosporioides KCTC 6169.
Assay [15] has as its system Candida albicans CCARM 14007.
Assay [16] deals with Candida albicans CCARM 14004.
The subject of assay [17] is Fusarium graminearum KCTC 16656.
Assay [18] relates to Fusarium solani KCTC 6326.
Assay [19] deals with Candida albicans KCTC 7270.
For assay [20], the system named is Fusarium oxysporum KCTC 16909.
Assay [21] relates to Trichophyton rubrum KCTC 6345.
Assay [22] relates to Trichoderma virens KCTC 16924.
The test system of assay [23] is Candida albicans CCARM 14020.
Assay [24] has as its system Trichoderma viride KCTC 16992.
The subject of assay [25] is Aspergillus flavus KCTC 6905.
Assay [26] has as its system Candida albicans CCARM 14001.
The test system of assay [27] is Pseudomonas aeruginosa KCTC 1637.
Assay [28] relates to Bacillus subtilis KCTC 3068.
Assay [29] concerns Staphylococcus aureus CCARM 3089.
The subject of assay [30] is Pseudomonas aeruginosa CCARM 2109.
For assay [31], the system named is Enterococcus faecium ATCC 51559.
Assay [32] has as its system Staphylococcus epidermidis KCTC 1917.
The subject of assay [33] is Staphylococcus aureus CCARM 3095.
Assay [34] concerns Staphylococcus aureus CCARM 3090.
Assay [35] deals with Salmonella typhimurium KCTC 1926.
In assay [36] the test system is Pseudomonas aeruginosa CCARM 2095.
Assay [37] concerns Staphylococcus aureus ATCC 12600.
Assay [38] concerns Escherichia coli ATCC 11775.
In assay [39] the test system is Candida albicans ATCC 14053.
Assay [40] deals with Micrococcus luteus ATCC 49732.
Assay [41] deals with Xanthomonas fragariae Xf349-9A.
In assay [42] the test system is Pseudomonas syringae pv. actinidiae Psa3700.1.1.
Assay [43] relates to Xanthomonas campestris pv. Vesicatoria 2133-2.
Assay [44] deals with Pseudomonas syringae pv. syringae EPS 94.
Assay [45] concerns Xanthomonas arboricola pv. pruni CFBP 5563.
The test system of assay [46] is Erwinia amylovora PMV 6076.

As to `CC[C@H](C)[C@H](NC(=O)[C@H](CCCCN)NC(=O)[C@H](Cc1c[nH]c2ccccc12)NC(=O)[C@H](CCCN=C(N)N)NC(=O)[C@H](CCCN=C(N)N)NC(=O)CNC(=O)[C@H](Cc1cnc[nH]1)NC(=O)CNC(=O)CN)C(=O)N[C@H](C(=O)N[C@H](C(=O)N[C@H](C(=O)N[C@@H](CCCN=C(N)N)C(=O)N[C@@H](Cc1c[nH]c2ccccc12)C(=O)N[C@@H](CCCN=C(N)N)C(=O)N[C@@H](CCCN=C(N)N)C(N)=O)[C@@H](C)CC)C(C)C)C(C)C` [GGHGRRWKIVVIRWRR], the MIC in [1] was 1.7 µM (≈ 3.45 µg/mL); in assay [2], 2.3 µM (≈ 4.67 µg/mL); against Enterococcus faecalis it was 1 µM (≈ 2.03 µg/mL); in the assay on Klebsiella pneumoniae, 4.7 µM (≈ 9.55 µg/mL); in the assay on Streptococcus pneumoniae, 9.3 µM (≈ 18.9 µg/mL); in assay [3], 1.3 µM and 2.7 µM. Also, the MIC was 1.33 µM (≈ 2.7 µg/mL) in the assay with Bacillus subtilis; 1 µM and 3 µM in assay [4]; 0.3 µM (≈ 0.609 µg/mL) with Enterococcus faecium.
With `CC(C)C[C@H](NC(=O)CN)C(=O)N[C@@H](CC(C)C)C(=O)N[C@@H](CCCN=C(N)N)C(=O)N[C@@H](C)C(=O)N[C@@H](CO)C(=O)N[C@@H](CO)C(=O)N[C@@H](CCCCN)C(=O)N[C@@H](Cc1c[nH]c2ccccc12)C(=O)NCC(=O)N[C@@H](CCCN=C(N)N)C(=O)N[C@@H](CCCCN)C(=O)N[C@@H](Cc1ccc(O)cc1)C(=O)N[C@@H](Cc1ccc(O)cc1)C(=O)N[C@H](C(=O)N[C@@H](CC(=O)O)C(=O)N[C@@H](CC(C)C)C(=O)N[C@@H](C)C(=O)NCC(=O)N[C@@H](CS)C(=O)N[C@@H](C)C(=O)N[C@@H](CCCCN)C(=O)N[C@@H](C)C(=O)O)C(C)C` [GLLRASSKWGRKYYVDLAGCAKA], the MIC in [5] is 1 µM (≈ 2.51 µg/mL); in assay [6], 24.9 µM (≈ 62.5 µg/mL); against Staphylococcus warneri, 12.5 µM (≈ 31.3 µg/mL); in assay [4], 11.3 µM (≈ 28.4 µg/mL); in [7] it was 8 µM (≈ 20.1 µg/mL); in [8], 8 µM (≈ 20.1 µg/mL). For the same compound, the results for the MIC in assay [9] and in [10] were 8 µM (≈ 20.1 µg/mL) and 24.9 µM (≈ 62.5 µg/mL), respectively.
For `NCCCC[C@H](NC(=O)[C@H](CCCCN)NC(=O)[C@H](Cc1cnc[nH]1)NC(=O)[C@H](CCCCN)NC(=O)[C@H](CCCCN)NC(=O)[C@@H](N)Cc1cnc[nH]1)C(N)=O` [HKKHKK], the minimal inhibitory concentration (MIC) was not below 64 µM in assay [11]; not below 64 µM in [12]; not below 32 µM in assay [13]; 16 µM (≈ 12.9 µg/mL) in [14]; not below 64 µM in assay [15]; not below 64 µM in assay [16]. For the same compound, the minimal inhibitory concentration (MIC) in [17] was not below 64 µM; in assay [18], not below 32 µM; in assay [19] it was not below 64 µM; in assay [20], not below 64 µM; in [21], not below 64 µM; in assay [22], not below 32 µM. Also, the minimum inhibitory concentration (MIC) in assay [23], in assay [24], in assay [25] and in assay [26] was not below 64 µM each time.
In the case of `C[C@H](NC(=O)[C@H](CCCCN)NC(=O)[C@H](Cc1ccc(O)cc1)NC(=O)[C@H](Cc1c[nH]c2ccccc12)NC(=O)[C@H](CCCCN)NC(=O)[C@H](CCCCN)NC(=O)[C@H](Cc1ccccc1)NC(=O)[C@H](CCCN=C(N)N)NC(=O)[C@@H](N)CCCCN)C(=O)N[C@@H](Cc1c[nH]c2ccccc12)C(=O)N[C@@H](CCCN=C(N)N)C(=O)N[C@@H](CCCCN)C(=O)N[C@@H](CCCCN)C(=O)N[C@@H](Cc1c[nH]c2ccccc12)C(=O)N[C@@H](CCCN=C(N)N)C(=O)N[C@@H](CCCCN)C(=O)N[C@@H](Cc1ccc(O)cc1)C(N)=O` [KRFKKWYKAWRKKWRKY], the minimal inhibitory concentration (MIC) in assay [27] turned out to be 2 µM (≈ 4.97 µg/mL); in [28], 4 µM (≈ 9.94 µg/mL); in assay [29] it was 2 µM (≈ 4.97 µg/mL); in assay [30], 4 µM (≈ 9.94 µg/mL); in assay [31], 2 µM (≈ 4.97 µg/mL); in assay [32], 2 µM (≈ 4.97 µg/mL). In addition, the MIC in assay [33] was found to be 2 µM (≈ 4.97 µg/mL); in assay [34], 2 µM (≈ 4.97 µg/mL); in [35], 1 µM (≈ 2.49 µg/mL); in assay [36], 4 µM (≈ 9.94 µg/mL).
For the compound `CC(C)[C@H](NC(=O)[C@H](C)NC(=O)[C@@H](NC(=O)CNC(=O)[C@@H]1CCCN1)[C@@H](C)O)C(=O)N[C@@H](Cc1ccccc1)C(=O)N[C@@H](C)C(=O)O` [PGTAVFA], the MIC in assay [37], in assay [38], in assay [39] and in assay [40] was not below 1010 µM throughout.
With `CC[C@H](C)[C@H](NC(=O)CNC(=O)[C@@H](N)Cc1ccc(O)cc1)C(=O)N[C@@H](Cc1cnc[nH]1)C(=O)N[C@H](C(=O)N[C@@H](Cc1cnc[nH]1)C(N)=O)[C@@H](C)O` [YGIHTH], the MIC in assay [41], in assay [42], in assay [43], in assay [44], in [45] and in assay [46] was not below 50 µM throughout.
